biological target: T1, PPARG (peroxisome proliferator activated receptor-gamma), GST-PPARG-LBD (Homo sapiens, UniProt P37231); experiment: LanthaScreen TR-FRET PPARG Competitive Binding Assay; set-up: key: “+” indicates the degree of the binding activity, and as the number of “+” increases, the binding activity is stronger; ++: “+” indicates the degree of the binding activity, and as the number of “+” increases, the binding activity is stronger; +++: “+” indicates the degree of the binding activity, and as the number of “+” increases, the binding activity is stronger; ++++: “+” indicates the degree of the binding activity, and as the number of “+” increases, the binding activity is stronger; details: degree of binding activity
T1 construct: 15 μL of 5 nM GST-PPARG-LBD and 5 nM Tb-GST-antibody were added; purchased Invitrogen PV4894
T1 sequence (P37231 238-503 limits assumed): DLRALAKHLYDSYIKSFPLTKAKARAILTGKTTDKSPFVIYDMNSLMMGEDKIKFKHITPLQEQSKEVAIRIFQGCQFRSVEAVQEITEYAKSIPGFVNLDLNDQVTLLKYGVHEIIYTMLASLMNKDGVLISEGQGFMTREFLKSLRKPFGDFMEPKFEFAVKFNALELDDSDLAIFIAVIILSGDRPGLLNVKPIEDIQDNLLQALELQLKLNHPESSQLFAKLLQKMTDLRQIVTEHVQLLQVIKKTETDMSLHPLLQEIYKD
Procedure, shortened: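 Ratio of 518 nm to 488 nm time-resolved emission after a 1 h room-temperature incubation, in competition format with GST-PPARG ligand-binding domain. Values are expressed as 100% minus compound-to-vehicle ratio and related to rosiglitazone binding.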

Compound | Binding assay (1 μLM)
C[C@H](NC(=O)c1ccc2c(c1)OCCN2Cc1ccc(-c2ccccc2C(=O)O)cc1)c1cccc(F)c1 [Example 84, (S)-4′-((7-((1-(3-fluorophenyl)ethyl)carbamoyl)-2H-benzo[b][1,4]oxazine-4(3H)-yl)methyl)-[1,1′-biphenyl]-2-carboxylic acid] | ++
C[C@H](NC(=O)c1ccc2c(c1)CCCN2Cc1cccc(-c2ccccc2C(N)=O)c1)c1ccccc1 [Example 117, (S)-1-((2′-carbamoyl-[1,1′-biphenyl]-3-yl)methyl)-N-(1-phenylethyl)-1,2,3,4-tetrahydroquinoline-6-carboxamide] | +++
C[C@H](NC(=O)c1ccc2c(c1)OCCN2Cc1ccc(-c2ccccc2C(=O)O)cc1)c1ccc2ccccc2c1 [Example 87, (S)-4′-((7-((1-(naphthalene-2-yl)ethyl)carbamoyl)-2H-benzo[b][1,4]oxazine-4(3H)-yl)methyl)-[1,1′-biphenyl]-2-carboxylic acid] | ++++
C[C@H](NC(=O)c1ccc2c(c1)CCCN2Cc1ccc(-c2ccccc2C(=O)O)cc1F)c1ccc2ccccc2c1 [Example 108, (S)-3′-fluoro-4′-((6-((1-(naphthalene-2-yl)ethyl)carbamoyl)-3,4-dihydroquinoline-1(28)-yl)methyl)-[1,1′-biphenyl]-2-carboxylic acid] | ++++
CC[C@H](NC(=O)c1ccc2c(c1)OCCN2Cc1ccc(-c2ccccc2C(=O)O)cc1)c1ccccc1 [Example 62, (S)-4′-((7-((1-phenylpropyl)carbamoyl)-2H-benzo[b][1,4]oxazine-4(3H)-yl)methyl)-[1,1′-biphenyl]-2-carboxylic acid] | +++
C[C@H](NC(=O)c1ccc2c(c1)OCCN2Cc1ccc(-c2ccccc2C(=O)O)c(F)c1)c1ccccc1 [Example 162, (S)-2′-fluoro-4′-((7-((1-phenylethyl)carbamoyl)-2H-benzo[b][1,4]oxazine-4(3H)-yl)methyl)-[1,1′-biphenyl]-2-carboxylic acid] | +++
C[C@H](NC(=O)c1ccc2c(c1)OCCN2Cc1ccc(-c2ccccc2C(=O)O)cc1)c1cccc2ccccc12 [Example 70, (S)-4′-((7-((1-(naphthalene-1-yl)ethyl)carbamoyl)-2H-benzo[b][1,4]oxazine-4(3H)-yl)methyl)-[1,1′-biphenyl]-2-carboxylic acid] | ++
Cc1ccc([C@H](C)NC(=O)c2ccc3c(c2)CCCN3Cc2cccc(-c3ccccc3C(=O)O)c2F)cc1F [Example 130, (S)-2′-fluoro-3′-((6-((1-(3-fluoro-4-methylphenyl)ethyl)carbamoyl)-3,4-dihydroquinoline-1(2H)-yl)methyl)-[1,1′-biphenyl]-2-caboxylic acid] | +++
C[C@H](NC(=O)c1ccc2c(c1)OCCN2Cc1ccc(-c2ccccc2C(N)=O)cc1)c1ccccc1 [Example 59, (S)-4-((2′-carbamoyl-[1,1′-biphenyl]-4-yl)methyl)-N-(1-phenylethyl)-3,4-dihydro-2H-benzo[b][1, 4]oxazine-7-carboxamide] | ++
O=C(NCc1ccccc1)c1ccc2c(c1)CCCN2Cc1ccc(-c2ccccc2C(=O)O)cc1 [Example 28, 4′-((6-(benzylcarbamoyl)-3,4-dihydroquinoline-1(2H)-yl)methyl)-[1,1′-biphenyl]-2-carboxylic acid] | ++++
O=C(NCc1ccc([N+](=O)[O-])cc1)c1ccc2c(c1)CCCN2Cc1ccc(-c2ccccc2C(=O)O)cc1 [Example 8, 4′-((6-((4-nitrobenzyl)carbamoyl)-3,4-dihydroquinoline-1(2H)-yl)methyl)-[1,1′-biphenyl]-2-carboxylic acid] | +++
C[C@H](NC(=O)c1ccc2c(c1)CCCN2Cc1ccccc1-c1ccc(C(N)=O)cc1)c1ccc([N+](=O)[O-])cc1 [Example 159, (S)-1-((4′-carbamoyl-[1,1′-biphenyl]-2-yl)methyl)-N-(1-(4-nitrophenyl)ethyl)-1,2,3,4-tetrahydroquinoline-6-carboxamide] | +
Cc1ccc([C@H](C)NC(=O)c2ccc3c(c2)CCCN3Cc2ccccc2-c2ccc(C(N)=O)cc2)cc1F [Example 158, (S)-1-((4′-carbamoyl-[1,1′-biphenyl]-2-yl)methyl)-N-(1-(3-fluoro-4-methylphenyl)ethyl)-1,2,3,4-tetrahydroquinoline-6-carboxamide] | +
O=C(NCc1ccc2c(c1)OCCO2)c1ccc2c(c1)CCCN2Cc1ccc(-c2ccccc2C(=O)O)cc1 [Example 30, 4′-((6-(((2,3-dihydrobenzo[b][1,4]dioxin-6-yl)methyl)carbamoyl)-3,4-dihydroquinoline-1(2H)-yl)methyl)-[1,1′-biphenyl]-2-carboxylic acid] | +++
C[C@H](NC(=O)c1ccc2c(c1)CCCN2Cc1ccc(-c2ccccc2C(N)=O)cc1)c1cccc(Cl)c1 [Example 35, (S)-1-((2′-carbamoyl-[1,1′-biphenyl]-4-yl)methyl)-N-(1-(3-chlorophenyl)ethyl)-1,2,3,4-tetrahydroquinoline-6-carboxamide] | +++
C[C@H](NC(=O)c1ccc2c(c1)CCCN2Cc1cc(-c2ccccc2C(=O)O)ccc1F)c1ccc([N+](=O)[O-])cc1 [Example 136, (S)-4′-fluoro-3′-((6-((1-(4-nitrophenyl)ethyl)carbamoyl)-3,4-dihydroquinoline-1(2H)-yl)methyl)-[1,1′-biphenyl]-2-caboxylic acid] | +++
C[C@H](NC(=O)c1ccc2c(c1)CCCN2Cc1ccc(-c2ccccc2C(=O)O)cc1)c1ccc(OC(F)(F)F)cc1 [Example 11, (s)-4′-((6-((1-(4-(trifluoromethoxy)phenyl)ethyl)carbamoyl)-3,4-dihydroquinoline-1(2H)-yl)methyl)-[1,1′-biphenyl]-2-carboxylic acid] | ++++
C[C@H](NC(=O)c1ccc2c(c1)OCCN2Cc1ccc(-c2ccccc2C(=O)[O-])cc1)c1ccccc1.[Na+] [Example 103, sodium (S)-4′-((7-((1-phenylethyl)carbamoyl)-2H-benzo[b][1,4]oxazine-4(3H)-yl)methyl)-[1,1′-biphenyl]-2-carboxylate] | ++
C[C@H](NC(=O)c1ccc2c(c1)CCCN2Cc1ccc(-c2ccccc2C(=O)O)cc1)c1ccc(C(F)(F)F)cc1 [Example 12, (S)-4′-((6-((1-(4-(trifluoromethyl)phenyl)ethyl)carbamoyl)-3,4-dihydroquinoline-1(2H)-yl)methyl)-[1,1′-biphenyl]-2-carboxylic acid] | ++++
COc1cccc([C@H](C)NC(=O)c2ccc3c(c2)CCCN3Cc2ccc(-c3ccccc3C(=O)O)cc2)c1 [Example 22, (S)-4′-((6-((1-(3-methoxyphenyl)ethyl)carbamoyl)-3,4-dihydroquinoline-1(2H)-yl)methyl)-[1,1′-biphenyl]-2-caboxylic acid] | +++
O=C(NCc1ccccc1Br)c1ccc2c(c1)OCCN2Cc1ccc(-c2ccccc2C(=O)O)cc1 [Example 92, 4′-((7-((2-bromobenzyl)carbamoyl)-2H-benzo[b][1,4]oxazine-4(3H)-yl)methyl)-[1,1′-biphenyl]-2-carboxylic acid] | +++
O=C(NCc1ccccn1)c1ccc2c(c1)OCCN2Cc1ccc(-c2ccccc2C(=O)O)cc1 [Example 88, 4′-((7-((pyridine-2-ylmethyl)carbamoyl)-2H-benzo[b][1,4]oxazine-4(3H)-yl)methyl)-[1,1′-biphenyl]-2-carboxylic acid] | +
C[C@H](NC(=O)c1ccc2c(c1)CCCN2Cc1ccc(-c2ccccc2C(N)=O)cc1)c1ccccc1 [Example 2, (S)-1-((2′-carbamoyl-[1,1′-biphenyl]-4-yl)methyl)-N-(1-phenylethyl)-1,2,3,4-tetrahydroquinoline-6-carboxamide] | +++
C[C@H](NC(=O)c1ccc2c(c1)OCCN2Cc1ccc(-c2ccccc2C(=O)O)cc1)c1ccc(C(F)(F)F)cc1 [Example 76, (S)-4′-((7-((1-(4-(trifluoromethyl)phenyl)ethyl)carbamoyl)-2H-benzo[b][1,4]oxazine-4(3H)-yl)methyl)-[1,1′-biphenyl]-2-carboxylic acid] | +++
O=C(NCc1ccc2c(c1)OCCO2)c1ccc2c(c1)OCCN2Cc1ccc(-c2ccccc2C(=O)O)cc1 [Example 93, 4′-((7-(((2,3-dihydrobenzo[b][1,4]dioxin-6-yl)methyl)carbamoyl)-2H-benzo[b][1,4]oxazine-4(3H)-yl)methyl)-[1,1′-biphenyl]-2-carboxylic acid] | ++
O=C(NCc1cccc(OC(F)(F)F)c1)c1ccc2c(c1)CCCN2Cc1ccc(-c2ccccc2C(=O)O)cc1 [Example 32, 4′-((6-((3-(trifluoromethoxy)benzyl)carbamoyl)-3,4-dihydroquinoline-1(2H)-yl)methyl)-[1,1′-biphenyl]-2-carboxylic acid] | +++
C[C@H](NC(=O)c1ccc2c(c1)CCCN2Cc1cccc(-c2ccccc2C(N)=O)c1F)c1ccccc1 [Example 127, (S)-1-((2′-carbamoyl-2-fluoro-[1,1′-biphenyl]-3-yl)methyl)-N-(1-phenylethyl)-1,2,3,4-tetrahydroquinoline-6-carboxamide] | +++

Source: patent publication US20160355483A1, “COMPOUND BINDING TO PPARG BUT NOT ACTING AS PROMOTER AND PHARMACEUTICAL COMPOSITION FOR TREATING PPARG-RELATED DISEASES CONTAINING SAME AS ACTIVE INGREDIENT” (Hyundai Pharm Co., Ltd., priority 2014, published 2016)
